± gives the expanded uncertainty stated by the source.
How the values were obtained:
[1] = for molar entropy: 101.33 kPa, Vacuum adiabatic calorimetry; for Triple point temperature: Adiabatic calorimetry
[2] = molar heat capacity at constant pressure; conditions: 101.33 kPa, Vacuum adiabatic calorimetry
[3] = Molar enthalpy of transition or fusion; conditions: Adiabatic calorimetry

CCCCn1cc[n+](C)c1.O=S(=O)([O-])C(F)(F)F [1-butyl-3-methylimidazolium trifluoromethanesulfonate]
Conditions | molar entropy, [1] [J/K/mol] | molar heat capacity at constant pressure, [2] [J/K/mol]
5 K, Crystal 2 | 0.4944 ± 0.023 | 1.486 ± 0.031
10 K, Crystal 2 | 3.77 ± 0.06 | 10.2 ± 0.1
15 K, Crystal 2 | 10.39 ± 0.12 | 23.78 ± 0.18
20 K, Crystal 2 | 19.26 ± 0.18 | 38.56 ± 0.23
25 K, Crystal 2 | 29.42 ± 0.22 | 52.98 ± 0.25
30 K, Crystal 2 | 40.29 ± 0.19 | 66.38 ± 0.18
35 K, Crystal 2 | 51.44 ± 0.22 | 78.37 ± 0.2
40 K, Crystal 2 | 62.61 ± 0.25 | 88.95 ± 0.22
45 K, Crystal 2 | 73.65 ± 0.28 | 98.67 ± 0.24
50 K, Crystal 2 | 84.51 ± 0.32 | 107.5 ± 0.3
55 K, Crystal 2 | 95.14 ± 0.35 | 115.5 ± 0.3
60 K, Crystal 2 | 105.5 ± 0.4 | 123 ± 0.3
65 K, Crystal 2 | 115.6 ± 0.4 | 130 ± 0.3
70 K, Crystal 2 | 125.5 ± 0.4 | 136.6 ± 0.3
80 K, Crystal 2 | 144.6 ± 0.5 | 148.9 ± 0.3
90 K, Crystal 2 | 162.8 ± 0.5 | 160 ± 0.4
100 K, Crystal 2 | 180.2 ± 0.6 | 170.5 ± 0.4
110 K, Crystal 2 | 196.9 ± 0.6 | 180.5 ± 0.4
120 K, Crystal 1 | – | 192.4 ± 0.4
120 K, Crystal 2 | – | 192.4 ± 0.4
130 K, Crystal 1 | 228.7 ± 0.6 | 198.6 ± 0.4
140 K, Crystal 1 | 243.7 ± 0.7 | 206.9 ± 0.4
150 K, Crystal 1 | 258.3 ± 0.7 | 216.1 ± 0.4
160 K, Crystal 1 | 272.5 ± 0.7 | 225.6 ± 0.4
170 K, Crystal 1 | 286.5 ± 0.7 | 235.5 ± 0.4
180 K, Crystal 1 | 300.3 ± 0.8 | 245.9 ± 0.4
190 K, Crystal 1 | 313.8 ± 0.8 | 256.7 ± 0.5
200 K, Crystal 1 | 327.3 ± 0.8 | 267.8 ± 0.5
210 K, Crystal 1 | 340.6 ± 0.8 | 279.3 ± 0.5
220 K, Crystal 1 | 353.9 ± 0.8 | 290.9 ± 0.5
230 K, Crystal 1 | 367.1 ± 0.9 | 302.8 ± 0.5
240 K, Crystal 1 | 380.2 ± 0.9 | 314.9 ± 0.5
250 K, Crystal 1 | 393.3 ± 0.9 | 327.1 ± 0.5
260 K, Crystal 1 | 406.4 ± 0.9 | 339.4 ± 0.5
270 K, Crystal 1 | 419.4 ± 0.9 | 351.9 ± 0.6
280 K, Crystal 1 | 432.5 ± 1 | 364.5 ± 0.6
290 K, Crystal 1 | 445.5 ± 1 | 377.3 ± 0.6
290.98 K, Crystal 1 | 446.8 ± 1 | 378.5 ± 0.6
290.98 K, Liquid | 513.6 ± 1.1 | 423.9 ± 0.6
298.15 K, Liquid | 523.9 ± 1.1 | 427.7 ± 0.6
300 K, Liquid | 526.6 ± 1.1 | 428.6 ± 0.6
310 K, Liquid | 540.7 ± 1.1 | 433.9 ± 0.6
320 K, Liquid | 554.6 ± 1.1 | 439.2 ± 0.6
330 K, Liquid | 568.2 ± 1.2 | 444.6 ± 0.6
340 K, Liquid | 581.5 ± 1.2 | 450 ± 0.7
350 K, Liquid | 594.7 ± 1.2 | 455.4 ± 0.7
360 K, Liquid | 607.6 ± 1.2 | 460.9 ± 0.7
370 K, Liquid | 620.3 ± 1.2 | 466.4 ± 0.7

Conditions | Molar enthalpy of transition or fusion, [3] [kcal/mol] | Triple point temperature, [1] [K]
Crystal 1 | 4.644 ± 0.00956 | 290.98 ± 0.04
Crystal 2 | 0.00311 ± 0.000239 | 120 ± 0.1

Reference: the NIST ThermoML archive (doi:10.1016/j.tca.2010.08.002)
